According to US20120289612A1, “Composite Material and Method for Producing the Same” (HOUSE FOODS CORPORATION, priority 2010, published 2012):

Tested on: acylase
Experiment: Enzyme addition: decomposition of capsaicin by acylase, HPLC
Format: physicochemical
Settings: acylase 0.05 u/ml, 50 mM tris buffer, 37° C., capsaicin 0.0028%, relative to beginning of shaking
Description: Each of the samples obtained in Reference Example 2 and Reference Comparative Example 2 was diluted 10-fold with a 50 mM tris buffer (capsaicin concentration: 0.0028%). To this liquid, an acylase was added at a concentration of 0.05 u/ml. The mixture was shaken in a constant-temperature water bath at 37° C. to allow the reaction of the enzyme to proceed.
Meanwhile, as Reference Example, a capsaicin reagent (capsaicin content: 95% or more) manufactured by SIGMA was diluted with a 50 mM tris buffer such that the capsaicin concentration was the same as that (0.0028%) in Reference Example 2 and Reference Comparative Example 2. To this liquid, an acylase was added at a concentration of 0.05 u/ml. The mixture was shaken in a constant-temperature water bath at 37° C. in the same manner as in Reference Example 2 and Reference Comparative Example 2, to allow the reaction of the enzyme to proceed.
To 2 ml of each sample in which the reaction of the enzyme was allowed to proceed for 0 (at the beginning of the shaking) minutes, 30 minutes, or 60 minutes, 3 ml of water was added, and thus the volume thereof was adjusted to 5 ml. Moreover, 1 ml of 2.5 N NaOH was added thereto, followed by heating in boiling water at 100° C. for 10 minutes. After the heating, 20 ml of methanol was added thereto. […] For the HPLC measurement, a fluorescence detector was used. […]

Structure (SMILES): COc1cc(CNC(=O)CCCC/C=C/C(C)C)ccc1O [Reference Example, capsaicin]
- ratio of capsaicin remaining after the enzymatic reaction for 60 minutes: 2.0%
